# Data taken from PubChem BioAssay (NCI).
#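 Protocol summary: plate cells (96-well), add compound at 5 concentrations, incubate 48 h, interpolate endpoints linearly. At the GI50, growth is halved. TGI: concentration producing complete growth inhibition.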
# Key:
# Assay in all cases: NCI tumour cell line growth inhibition, 48 h
# 786-0 renal = system: 786-0 renal
# A498 renal = system: A498 renal
# A549 NSCLC = system: A549 NSCLC
# ACHN renal = system: ACHN renal
# BT-549 breast = system: BT-549 breast
# CAKI-1 renal = system: CAKI-1 renal
# CCRF-CEM leukemia = system: CCRF-CEM leukemia
# COLO 205 colon = system: COLO 205 colon
# DU-145 prostate = system: DU-145 prostate
# EKVX NSCLC = system: EKVX NSCLC
# HCC-2998 colon = system: HCC-2998 colon
# HCT-116 colon = system: HCT-116 colon
# HCT-15 colon = system: HCT-15 colon
# HL-60(TB) leukemia = system: HL-60(TB) leukemia
# HOP-62 NSCLC = system: HOP-62 NSCLC
# HOP-92 NSCLC = system: HOP-92 NSCLC
# HS 578T breast = system: HS 578T breast
# HT29 colon = system: HT29 colon
# IGROV1 ovarian = system: IGROV1 ovarian
# K-562 leukemia = system: K-562 leukemia
# KM12 colon = system: KM12 colon
# LOX IMVI melanoma = system: LOX IMVI melanoma
# M14 melanoma = system: M14 melanoma
# MALME-3M melanoma = system: MALME-3M melanoma
# MCF7 breast = system: MCF7 breast
# MDA-MB-231 breast = system: MDA-MB-231 breast
# MDA-MB-435 = system: MDA-MB-435
# MOLT-4 leukemia = system: MOLT-4 leukemia
# NCI-H226 lung = system: NCI-H226 lung
# NCI-H23 lung = system: NCI-H23 lung
# NCI-H460 lung = system: NCI-H460 lung
# NCI-H522 lung = system: NCI-H522 lung
# NCI/ADR-RES ovarian = system: NCI/ADR-RES ovarian
# OVCAR-3 ovarian = system: OVCAR-3 ovarian
# OVCAR-4 ovarian = system: OVCAR-4 ovarian
# OVCAR-5 ovarian = system: OVCAR-5 ovarian
# OVCAR-8 ovarian = system: OVCAR-8 ovarian
# PC-3 prostate = system: PC-3 prostate
# RPMI-8226 leukemia = system: RPMI-8226 leukemia
# RXF 393 renal = system: RXF 393 renal
# SF-268 CNS = system: SF-268 CNS
# SF-295 CNS = system: SF-295 CNS
# SF-539 CNS = system: SF-539 CNS
# SK-MEL-2 melanoma = system: SK-MEL-2 melanoma
# SK-MEL-28 melanoma = system: SK-MEL-28 melanoma
# SK-MEL-5 melanoma = system: SK-MEL-5 melanoma
# SK-OV-3 ovarian = system: SK-OV-3 ovarian
# SN12C renal = system: SN12C renal
# SNB-19 CNS = system: SNB-19 CNS
# SNB-75 CNS = system: SNB-75 CNS
# SR leukemia = system: SR leukemia
# SW-620 colon = system: SW-620 colon
# T-47D breast = system: T-47D breast
# TK-10 renal = system: TK-10 renal
# U251 CNS = system: U251 CNS
# UACC-257 melanoma = system: UACC-257 melanoma
# UACC-62 melanoma = system: UACC-62 melanoma
# UO-31 renal = system: UO-31 renal
smiles,measurement,setting,value
CCOc1ccc(C(=O)Nc2ncc(Cc3ccc(F)cc3)s2)cc1,GI50,786-0 renal,340 nM
same,TGI,786-0 renal,> 54500 nM
same,GI50,A498 renal,> 34000 nM
same,TGI,A498 renal,> 90500 nM
same,GI50,A549 NSCLC,257 nM
same,TGI,A549 NSCLC,> 100000 nM
same,GI50,ACHN renal,455 nM
same,TGI,ACHN renal,> 100000 nM
same,GI50,BT-549 breast,1730 nM
same,TGI,BT-549 breast,> 100000 nM
same,GI50,CAKI-1 renal,74.9 nM
same,TGI,CAKI-1 renal,> 44200 nM
same,GI50,CCRF-CEM leukemia,108 nM
same,TGI,CCRF-CEM leukemia,> 52700 nM
same,GI50,COLO 205 colon,164 nM
same,GI50,DU-145 prostate,387 nM
same,TGI,DU-145 prostate,> 100000 nM
same,GI50,EKVX NSCLC,347 nM
same,TGI,EKVX NSCLC,> 100000 nM
same,GI50,HCC-2998 colon,213 nM
same,TGI,HCC-2998 colon,> 100000 nM
same,GI50,HCT-116 colon,93 nM
same,TGI,HCT-116 colon,> 100000 nM
same,GI50,HCT-15 colon,49.4 nM
same,TGI,HCT-15 colon,> 100000 nM
same,GI50,HL-60(TB) leukemia,52 nM
same,TGI,HL-60(TB) leukemia,4680 nM
same,GI50,HOP-62 NSCLC,309 nM
same,TGI,HOP-62 NSCLC,> 50000 nM
same,GI50,HOP-92 NSCLC,8750 nM
same,TGI,HOP-92 NSCLC,> 86100 nM
same,GI50,HS 578T breast,399 nM
same,TGI,HS 578T breast,> 39300 nM
same,GI50,HT29 colon,77.1 nM
same,GI50,IGROV1 ovarian,409 nM
same,TGI,IGROV1 ovarian,> 100000 nM
same,GI50,K-562 leukemia,44.3 nM
same,TGI,K-562 leukemia,> 100000 nM
same,GI50,KM12 colon,83.6 nM
same,TGI,KM12 colon,> 100000 nM
same,GI50,LOX IMVI melanoma,145 nM
same,TGI,LOX IMVI melanoma,> 100000 nM
same,GI50,M14 melanoma,94.1 nM
same,TGI,M14 melanoma,> 100000 nM
same,GI50,MALME-3M melanoma,1130 nM
same,TGI,MALME-3M melanoma,> 100000 nM
same,GI50,MCF7 breast,53.7 nM
same,TGI,MCF7 breast,> 100000 nM
same,GI50,MDA-MB-231 breast,371 nM
same,TGI,MDA-MB-231 breast,> 86100 nM
same,GI50,MDA-MB-435,22.1 nM
same,TGI,MDA-MB-435,55.1 nM
same,GI50,MOLT-4 leukemia,151 nM
same,TGI,MOLT-4 leukemia,> 100000 nM
same,GI50,NCI-H226 lung,319 nM
same,TGI,NCI-H226 lung,7630 nM
same,GI50,NCI-H23 lung,466 nM
same,TGI,NCI-H23 lung,> 100000 nM
same,GI50,NCI-H460 lung,113 nM
same,TGI,NCI-H460 lung,> 100000 nM
same,GI50,NCI-H522 lung,78.1 nM
same,TGI,NCI-H522 lung,375 nM
same,GI50,NCI/ADR-RES ovarian,117 nM
same,TGI,NCI/ADR-RES ovarian,> 100000 nM
same,GI50,OVCAR-3 ovarian,162 nM
same,TGI,OVCAR-3 ovarian,> 22200 nM
same,GI50,OVCAR-4 ovarian,1630 nM
same,TGI,OVCAR-4 ovarian,> 100000 nM
same,GI50,OVCAR-5 ovarian,387 nM
same,TGI,OVCAR-5 ovarian,> 100000 nM
same,GI50,OVCAR-8 ovarian,376 nM
same,TGI,OVCAR-8 ovarian,> 52300 nM
same,GI50,PC-3 prostate,169 nM
same,TGI,PC-3 prostate,> 100000 nM
same,GI50,RPMI-8226 leukemia,157 nM
same,TGI,RPMI-8226 leukemia,> 100000 nM
same,GI50,RXF 393 renal,151 nM
same,TGI,RXF 393 renal,672 nM
same,GI50,SF-268 CNS,4610 nM
same,TGI,SF-268 CNS,> 91900 nM
same,GI50,SF-295 CNS,144 nM
same,TGI,SF-295 CNS,> 33000 nM
same,GI50,SF-539 CNS,161 nM
same,TGI,SF-539 CNS,2750 nM
same,GI50,SK-MEL-2 melanoma,117 nM
same,GI50,SK-MEL-28 melanoma,1230 nM
same,TGI,SK-MEL-28 melanoma,> 100000 nM
same,GI50,SK-MEL-5 melanoma,322 nM
same,TGI,SK-MEL-5 melanoma,> 100000 nM
same,GI50,SK-OV-3 ovarian,289 nM
same,TGI,SK-OV-3 ovarian,> 64900 nM
same,GI50,SN12C renal,345 nM
same,TGI,SN12C renal,> 100000 nM
same,GI50,SNB-19 CNS,402 nM
same,TGI,SNB-19 CNS,> 100000 nM
same,GI50,SNB-75 CNS,69.3 nM
same,TGI,SNB-75 CNS,3440 nM
same,GI50,SR leukemia,34.4 nM
same,TGI,SR leukemia,> 100000 nM
same,GI50,SW-620 colon,77.8 nM
same,TGI,SW-620 colon,> 100000 nM
same,GI50,T-47D breast,248 nM
same,TGI,T-47D breast,> 100000 nM
same,GI50,TK-10 renal,29300 nM
same,TGI,TK-10 renal,> 75900 nM
same,GI50,U251 CNS,230 nM
same,TGI,U251 CNS,> 62600 nM
same,TGI,UACC-257 melanoma,> 100000 nM
same,GI50,UACC-62 melanoma,107 nM
same,TGI,UACC-62 melanoma,> 100000 nM
same,GI50,UO-31 renal,350 nM
same,TGI,UO-31 renal,> 66500 nM
